Data: ChEMBL document CHEMBL3112480, “γ-Alkylidene-γ-lactones and isobutylpyrrol-2(5H)-ones analogues to rubrolides as inhibitors of biofilm formation by gram-positive and gram-negative bacteria” (Bioorg Med Chem Lett, 2014)
Values after ≈ are worked out from the molar mass of the structure shown.

Columns and labels:
[1] = tested on: Pseudomonas aeruginosa; experiment: Antibacterial activity against Pseudomonas aeruginosa ATCC 27853 assessed as effect on planktonic growth at 0.17 ug/ml after 20 hrs relative to control; format: functional
[2] = tested on: Streptococcus mutans; experiment: Antibacterial activity against Streptococcus mutans ATCC 25175 assessed as effect on planktonic growth at 0.17 ug/ml after 20 hrs relative to control; format: functional
[3] = tested on: Pseudomonas aeruginosa; experiment: Antibacterial activity against Pseudomonas aeruginosa ATCC 27853 assessed as effect on planktonic growth at 0.34 ug/ml after 20 hrs relative to control; format: functional
[4] = tested on: Staphylococcus epidermidis; experiment: Antibacterial activity against Staphylococcus epidermidis ATCC 35547 assessed as effect on planktonic growth at 1.37 ug/ml after 20 hrs relative to control; format: functional
[5] = tested on: Staphylococcus epidermidis; experiment: Antibacterial activity against Staphylococcus epidermidis ATCC 35547 assessed as inhibition of biofilm formation after 20 hrs by crystal-violet staining method; format: functional, organism-based
[6] = tested on: Pseudomonas aeruginosa; experiment: Antibacterial activity against Pseudomonas aeruginosa ATCC 27853 assessed as inhibition of biofilm formation after 20 hrs by crystal-violet staining method; format: functional, organism-based; conditions: for IC50: ATCC 27853, 20 h
[7] = tested on: Staphylococcus aureus; experiment: Antibacterial activity against Staphylococcus aureus ATCC 25923 assessed as effect on planktonic growth at 87.5 ug/ml after 20 hrs relative to control; format: functional
[8] = tested on: Streptococcus mutans; experiment: Antibacterial activity against Streptococcus mutans ATCC 25175 assessed as effect on planktonic growth at 1.37 ug/ml after 20 hrs relative to control; format: functional
[9] = tested on: Staphylococcus epidermidis; experiment: Antibacterial activity against Staphylococcus epidermidis ATCC 35547 assessed as effect on planktonic growth at 10.9 ug/ml after 20 hrs relative to control; format: functional
[10] = tested on: Staphylococcus aureus; experiment: Antibacterial activity against Staphylococcus aureus ATCC 25923 assessed as effect on planktonic growth at 0.68 ug/ml after 20 hrs relative to control; format: functional
[11] = tested on: Pseudomonas aeruginosa; experiment: Antibacterial activity against Pseudomonas aeruginosa ATCC 27853 assessed as effect on planktonic growth at 1.37 ug/ml after 20 hrs relative to control; format: functional
[12] = tested on: Pseudomonas aeruginosa; experiment: Antibacterial activity against Pseudomonas aeruginosa ATCC 27853 assessed as effect on planktonic growth at 43.8 ug/ml after 20 hrs relative to control; format: functional
[13] = tested on: Staphylococcus aureus; experiment: Antibacterial activity against Staphylococcus aureus ATCC 25923 assessed as effect on planktonic growth at 21.9 ug/ml after 20 hrs relative to control; format: functional
[14] = tested on: Staphylococcus epidermidis; experiment: Antibacterial activity against Staphylococcus epidermidis ATCC 35547 assessed as effect on planktonic growth at 0.34 ug/ml after 20 hrs relative to control; format: functional
[15] = tested on: Streptococcus mutans; experiment: Antibacterial activity against Streptococcus mutans ATCC 25175 assessed as effect on planktonic growth at 0.68 ug/ml after 20 hrs relative to control; format: functional
[16] = tested on: Streptococcus mutans; experiment: Antibacterial activity against Streptococcus mutans ATCC 25175 assessed as effect on planktonic growth at 43.8 ug/ml after 20 hrs relative to control; format: functional
[17] = tested on: Staphylococcus aureus; experiment: Antibacterial activity against Staphylococcus aureus ATCC 25923 assessed as effect on planktonic growth at 10.9 ug/ml after 20 hrs relative to control; format: functional
[18] = tested on: Staphylococcus epidermidis; experiment: Antibacterial activity against Staphylococcus epidermidis ATCC 35547 assessed as effect on planktonic growth at 0.17 ug/ml after 20 hrs relative to control; format: functional
[19] = tested on: Staphylococcus aureus; experiment: Antibacterial activity against Staphylococcus aureus ATCC 25923 assessed as effect on planktonic growth at 1.37 ug/ml after 20 hrs relative to control; format: functional
[20] = tested on: Streptococcus mutans; experiment: Antibacterial activity against Streptococcus mutans ATCC 25175 assessed as effect on planktonic growth at 21.9 ug/ml after 20 hrs relative to control; format: functional
[21] = tested on: Staphylococcus epidermidis; experiment: Antibacterial activity against Staphylococcus epidermidis ATCC 35547 assessed as effect on planktonic growth at 5.5 ug/ml after 20 hrs relative to control; format: functional
[22] = tested on: Staphylococcus aureus; experiment: Antibacterial activity against Staphylococcus aureus ATCC 25923 assessed as effect on planktonic growth at 5.5 ug/ml after 20 hrs relative to control; format: functional
[23] = tested on: Streptococcus mutans; experiment: Antibacterial activity against Streptococcus mutans ATCC 25175 assessed as effect on planktonic growth at 5.5 ug/ml after 20 hrs relative to control; format: functional
[24] = tested on: Staphylococcus epidermidis; experiment: Antibacterial activity against Staphylococcus epidermidis ATCC 35547 assessed as effect on planktonic growth at 21.9 ug/ml after 20 hrs relative to control; format: functional
[25] = tested on: Pseudomonas aeruginosa; experiment: Antibacterial activity against Pseudomonas aeruginosa ATCC 27853 assessed as effect on planktonic growth at 87.5 ug/ml after 20 hrs relative to control; format: functional
[26] = tested on: Staphylococcus epidermidis; experiment: Antibacterial activity against Staphylococcus epidermidis ATCC 35547 assessed as effect on planktonic growth at 2.73 ug/ml after 20 hrs relative to control; format: functional
[27] = tested on: Pseudomonas aeruginosa; experiment: Antibacterial activity against Pseudomonas aeruginosa ATCC 27853 assessed as effect on planktonic growth at 2.73 ug/ml after 20 hrs relative to control; format: functional
[28] = tested on: Staphylococcus aureus; experiment: Antibacterial activity against Staphylococcus aureus ATCC 25923 assessed as inhibition of biofilm formation at 44 ug/ml after 20 hrs by crystal-violet staining method relative to control; format: functional; conditions: ATCC 25923, 20 h
[29] = tested on: Pseudomonas aeruginosa; experiment: Antibacterial activity against Pseudomonas aeruginosa ATCC 27853 assessed as effect on planktonic growth at 21.9 ug/ml after 20 hrs relative to control; format: functional
[30] = tested on: Streptococcus mutans; experiment: Antibacterial activity against Streptococcus mutans ATCC 25175 assessed as effect on planktonic growth at 0.34 ug/ml after 20 hrs relative to control; format: functional
[31] = tested on: Pseudomonas aeruginosa; experiment: Antibacterial activity against Pseudomonas aeruginosa ATCC 27853 assessed as effect on planktonic growth at 10.9 ug/ml after 20 hrs relative to control; format: functional
[32] = tested on: Streptococcus mutans; experiment: Antibacterial activity against Streptococcus mutans ATCC 25175 assessed as effect on planktonic growth at 2.73 ug/ml after 20 hrs relative to control; format: functional
[33] = tested on: Pseudomonas aeruginosa; experiment: Antibacterial activity against Pseudomonas aeruginosa ATCC 27853 assessed as effect on planktonic growth at 0.68 ug/ml after 20 hrs relative to control; format: functional
[34] = tested on: Staphylococcus aureus; experiment: Antibacterial activity against Staphylococcus aureus ATCC 25923 assessed as effect on planktonic growth at 2.73 ug/ml after 20 hrs relative to control; format: functional
[35] = tested on: Staphylococcus epidermidis; experiment: Antibacterial activity against Staphylococcus epidermidis ATCC 35547 assessed as effect on planktonic growth at 0.68 ug/ml after 20 hrs relative to control; format: functional
[36] = tested on: Pseudomonas aeruginosa; experiment: Antibacterial activity against Pseudomonas aeruginosa ATCC 27853 assessed as effect on planktonic growth at 5.5 ug/ml after 20 hrs relative to control; format: functional
[37] = tested on: Staphylococcus epidermidis; experiment: Antibacterial activity against Staphylococcus epidermidis ATCC 35547 assessed as effect on planktonic growth at 43.8 ug/ml after 20 hrs relative to control; format: functional
[38] = tested on: Staphylococcus aureus; experiment: Antibacterial activity against Staphylococcus aureus ATCC 25923 assessed as effect on planktonic growth at 43.8 ug/ml after 20 hrs relative to control; format: functional
[39] = tested on: Streptococcus mutans; experiment: Antibacterial activity against Streptococcus mutans ATCC 25175 assessed as effect on planktonic growth at 10.9 ug/ml after 20 hrs relative to control; format: functional
[40] = tested on: Staphylococcus aureus; experiment: Antibacterial activity against Staphylococcus aureus ATCC 25923 assessed as effect on planktonic growth at 0.17 ug/ml after 20 hrs relative to control; format: functional
[41] = tested on: Staphylococcus epidermidis; experiment: Antibacterial activity against Staphylococcus epidermidis ATCC 35547 assessed as effect on planktonic growth at 87.5 ug/ml after 20 hrs relative to control; format: functional
[42] = tested on: Staphylococcus aureus; experiment: Antibacterial activity against Staphylococcus aureus ATCC 25923 assessed as effect on planktonic growth at 0.34 ug/ml after 20 hrs relative to control; format: functional
[43] = tested on: Streptococcus mutans; experiment: Antibacterial activity against Streptococcus mutans ATCC 25175 assessed as effect on planktonic growth at 87.5 ug/ml after 20 hrs relative to control; format: functional
[44] = tested on: Staphylococcus epidermidis; experiment: Induction of biofilm formation in Staphylococcus epidermidis ATCC 35547 at 87.5 ug/ml after 20 hrs by crystal-violet staining method relative to control; format: organism-based

## COc1ccc(C)cc1C1=C(Br)C(=O)N(CC(C)C)/C1=C/c1ccccc1Cl
[1]
  Activity: 1.2%
[2]
  Activity: 11.9%
[3]
  Activity: 0.6%
[4]
  Activity: -2.3%
[5]
  inhibition: Dose-dependent effect
[5]; ATCC 35547, 20 h
  IC50: > 87.5 µg/mL
[6]
  inhibition: Dose-dependent effect
  IC50: 1.4 µg/mL (≈ 3.04 µM)
[7]
  Activity: 20.1%
[8]
  Activity: 20.6%
[9]
  Activity: 6%
[10]
  Activity: -3.6%
[11]
  Activity: -10%
[12]
  Activity: -7.7%
[13]
  Activity: -13.2%
[14]
  Activity: 3.6%
[15]
  Activity: 9%
[16]
  Activity: 20.1%
[17]
  Activity: -11.2%
[18]
  Activity: -2.9%
[19]
  Activity: -4.6%
[20]
  Activity: 13.8%
[21]
  Activity: -1%
[22]
  Activity: -9.4%
[23]
  Activity: 25.4%
[24]
  Activity: 5.9%
[25]
  Activity: -4.3%
[26]
  Activity: 0.4%
[27]
  Activity: -18.8%
[28]
  inhibition at 44 µg/mL: 34%
[29]
  Activity: -13.2%
[30]
  Activity: 18.1%
[31]
  Activity: -15%
[32]
  Activity: 24.3%
[33]
  Activity: -2.7%
[34]
  Activity: -10.4%
[35]
  Activity: -6.1%
[36]
  Activity: -17.8%
[37]
  Activity: 26.9%
[38]
  Activity: 4.6%
[39]
  Activity: 18.6%
[40]
  Activity: -6.6%
[41]
  Activity: 23.5%
[42]
  Activity: -6.6%
[43]
  Activity: 20.1%

## COc1ccccc1C1=C(Br)C(=O)N(CC(C)C)C1(O)Cc1ccc(C(F)(F)F)cc1 (centres undefined)
[1]
  Activity: 4.7%
[2]
  Activity: 0.7%
[3]
  Activity: 3.7%
[4]
  Activity: 0.1%
[44]
  Activity: 143.6%
[5]
  inhibition: Dose-dependent effect
[6]
  inhibition: Dose-dependent effect
  IC50: > 87.5 µg/mL
[7]
  Activity: -15.4%
[8]
  Activity: 12.4%
[9]
  Activity: 16.4%
[10]
  Activity: -5.6%
[11]
  Activity: -19.3%
[12]
  Activity: -7.8%
[13]
  Activity: -17%
[14]
  Activity: 1.9%
[15]
  Activity: 10.9%
[16]
  Activity: -29.9%
[17]
  Activity: -5.8%
[18]
  Activity: 6.3%
[19]
  Activity: 2.5%
[20]
  Activity: -26.9%
[21]
  Activity: 10.7%
[22]
  Activity: -4.1%
[23]
  Activity: -18.7%
[24]
  Activity: 13.8%
[25]
  Activity: -10.8%
[26]
  Activity: 3.5%
[27]
  Activity: -18.4%
[29]
  Activity: -12.2%
[30]
  Activity: 6.2%
[31]
  Activity: -16.2%
[32]
  Activity: 1.7%
[33]
  Activity: -6.5%
[34]
  Activity: 0.5%
[35]
  Activity: 1.4%
[36]
  Activity: -17.2%
[37]
  Activity: 16.3%
[38]
  Activity: -17%
[39]
  Activity: -23.9%
[40]
  Activity: -4.8%
[41]
  Activity: 0.5%
[42]
  Activity: -2.8%
[43]
  Activity: -36.3%
